pEC50: −log10 of the molar value. Values after ≈ are worked out from the molar mass of the structure shown.
What was measured:
[1] = biological target: Beta-2 adrenergic receptor (Cavia porcellus, UniProt Q8K4Z4); test: Agonist activity at beta2 adrenoceptor in guinea pig tracheal rings assessed as relaxation of tracheal smooth muscle; type: functional, tissue-based, Trachea
[2] = biological target: Beta-1 adrenergic receptor (Rattus norvegicus, UniProt P18090); test: Agonist activity at beta1 adrenoceptor in rat left atria assessed as induction of ionotropic effect; type: functional
Cavia porcellus [3] = test: Bronchocoprotective activity in guinea pig assessed as inhibition of acetylcholine-induced bronchoconstriction administered by aerosol after 4 hrs; type: functional, organism-based
Cavia porcellus [4] = test: Bronchocoprotective activity in guinea pig assessed as inhibition of acetylcholine-induced bronchoconstriction administered by aerosol after 24 hrs; type: functional, organism-based
[5] = Bronchodialatory activity in guinea pig trachea assessed as tone recovery measured after 1 hr of drug washout; type: functional, Cavia porcellus; set-up: concentration or dose not given beside the values

Chain of Beta-1 adrenergic receptor (P18090 whole entry): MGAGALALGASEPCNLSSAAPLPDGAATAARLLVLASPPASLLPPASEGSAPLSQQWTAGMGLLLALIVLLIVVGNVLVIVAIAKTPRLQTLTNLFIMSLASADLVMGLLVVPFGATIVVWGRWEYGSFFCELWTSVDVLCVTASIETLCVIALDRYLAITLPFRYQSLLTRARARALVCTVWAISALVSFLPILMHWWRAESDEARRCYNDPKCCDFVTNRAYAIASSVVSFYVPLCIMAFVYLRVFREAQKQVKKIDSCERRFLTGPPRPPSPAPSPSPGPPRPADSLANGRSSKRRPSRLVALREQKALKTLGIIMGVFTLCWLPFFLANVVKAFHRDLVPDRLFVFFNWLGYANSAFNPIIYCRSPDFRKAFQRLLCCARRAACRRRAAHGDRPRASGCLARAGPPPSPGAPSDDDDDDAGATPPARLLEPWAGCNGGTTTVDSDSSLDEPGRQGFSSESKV
Chain of Beta-2 adrenergic receptor (Q8K4Z4 whole entry): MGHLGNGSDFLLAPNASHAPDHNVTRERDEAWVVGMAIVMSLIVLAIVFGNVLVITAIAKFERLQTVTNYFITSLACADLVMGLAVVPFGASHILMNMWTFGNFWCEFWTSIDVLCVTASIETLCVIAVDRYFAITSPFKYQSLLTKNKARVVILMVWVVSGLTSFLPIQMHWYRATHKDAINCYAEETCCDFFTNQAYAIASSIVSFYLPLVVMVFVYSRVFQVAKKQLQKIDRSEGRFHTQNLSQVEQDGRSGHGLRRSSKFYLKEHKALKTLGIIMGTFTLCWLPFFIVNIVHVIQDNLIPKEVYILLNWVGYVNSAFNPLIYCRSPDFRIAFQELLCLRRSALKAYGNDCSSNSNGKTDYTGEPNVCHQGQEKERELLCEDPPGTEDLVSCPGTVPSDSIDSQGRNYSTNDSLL

| Structure (SMILES) | pEC50 [1] | pEC50 [2] | IC50 (Cavia porcellus [3]) | IC50 (Cavia porcellus [4]) | Activity [5] |
| --- | --- | --- | --- | --- | --- |
| O=C(NCCCc1ccccc1)Nc1cccc(CCNCC(O)c2ccc(O)c3[nH]c(=O)ccc23)c1 (stereo unspecified) | 10.30 | < 5.00 | 1 µg/mL (≈ 2 µM) | 3 µg/mL (≈ 5.99 µM) | 2% |
| O=C(Nc1cccc(CCNCC(O)c2ccc(O)c3[nH]c(=O)ccc23)c1)Nc1cccc(Oc2ccccc2)c1 (stereo unspecified) | 9.00 | 5.00 |  |  | 0% |
| O=C(NCC12CC3CC(CC(C3)C1)C2)Nc1cccc(CCNCC(O)c2ccc(O)c3[nH]c(=O)ccc23)c1 (stereo unspecified) | 8.49 | 6.53 |  |  | 8% |
| O=C(Nc1ccccc1)Nc1cccc(CCNCC(O)c2ccc(O)c3[nH]c(=O)ccc23)c1 (stereo unspecified) | 10.15 | < 5.00 | 0.2 µg/mL (≈ 0.436 µM) | 3 µg/mL (≈ 6.54 µM) | 12% |
| O=C(NCc1ccccc1)Nc1cccc(CCNCC(O)c2ccc(O)c3[nH]c(=O)ccc23)c1 (stereo unspecified) | 9.70 | 6.05 | 0.3 µg/mL (≈ 0.635 µM) | > 100 µg/mL | 15% |
| O=C(Nc1cccc(CCNCC(O)c2ccc(O)c3[nH]c(=O)ccc23)c1)NC(c1ccccc1)c1ccccc1 (stereo unspecified) | 9.70 | 5.05 | 1 µg/mL (≈ 1.82 µM) | 1.5 µg/mL (≈ 2.73 µM) | 2% |
| NC(=O)C(c1ccccc1)(c1ccccc1)[C@@H]1CCN(CCc2ccc3c(c2)CCO3)C1 [DARIFENACIN] | 9.00 | 5.64 | 5 µg/mL (≈ 11.7 µM) | 12 µg/mL (≈ 28.1 µM) | 0% |
| O=C(Nc1cccc(CCNCC(O)c2ccc(O)c3[nH]c(=O)ccc23)c1)Nc1ccccc1-c1ccccc1 (stereo unspecified) | 9.15 | 5.24 | 3 µg/mL (≈ 5.61 µM) | 7 µg/mL (≈ 13.1 µM) | 4% |
| O=C(NCCc1ccccc1)Nc1cccc(CCNCC(O)c2ccc(O)c3[nH]c(=O)ccc23)c1 (stereo unspecified) | 10.05 | < 5.00 | 2 µg/mL (≈ 4.11 µM) | > 10 µg/mL | 9% |
| O=C(NCc1c(Cl)cccc1Cl)Nc1cccc(CCNCC(O)c2ccc(O)c3[nH]c(=O)ccc23)c1 (stereo unspecified) | 9.70 | 5.80 | 4 µg/mL (≈ 7.39 µM) | > 100 µg/mL | 4% |
| CC(C)(C)c1ccc(CNC(=O)Nc2cccc(CCNCC(O)c3ccc(O)c4[nH]c(=O)ccc34)c2)cc1 (stereo unspecified) | 9.05 |  |  |  | 5% |
| O=C(NCc1ccc(F)cc1)Nc1cccc(CCNCC(O)c2ccc(O)c3[nH]c(=O)ccc23)c1 (stereo unspecified) | 9.70 | 5.20 |  |  | 16% |
| COc1ccccc1CNC(=O)Nc1cccc(CCNCC(O)c2ccc(O)c3[nH]c(=O)ccc23)c1 (stereo unspecified) | 9.70 | 6.26 |  |  | 23% |
| NC(=O)c1cccc(CNC(=O)Nc2cccc(CCNCC(O)c3ccc(O)c4[nH]c(=O)ccc34)c2)c1 (stereo unspecified) | 9.89 |  |  |  | 52% |

From ChEMBL document CHEMBL1681641, “Discovery of substituted phenyl urea derivatives as novel long-acting β2-adrenoreceptor agonists” (Bioorg Med Chem Lett, 2011)
